The source of these data is ChEMBL document CHEMBL1147661, “The first potent inhibitor of mammalian group X secreted phospholipase A2: elucidation of sites for enhanced binding” (J Med Chem, 2006).

Assay [1] has as its target Phospholipase A2 (Mus musculus, UniProt Q9Z0Y2). Kind of assay: Inhibition of mouse recombinant sPLA2 G1B.
Assay [2] has as its target T1, Group IIE secretory phospholipase A2 (Homo sapiens, UniProt Q9NZK7).
T1 sequence (Q9NZK7 whole entry): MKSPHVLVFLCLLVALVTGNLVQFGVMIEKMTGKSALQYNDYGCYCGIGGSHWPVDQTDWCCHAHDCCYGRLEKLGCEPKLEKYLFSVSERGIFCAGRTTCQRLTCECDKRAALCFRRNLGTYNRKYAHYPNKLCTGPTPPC
Briefly: Inhibition of human recombinant sPLA2 G2E.

Assay [3] concerns the target Phospholipase A2 (Homo sapiens, UniProt P04054). Kind of assay: Inhibition of human recombinant sPLA2 G1B.
The target in assay [4] is T2, Group IIE secretory phospholipase A2 (Mus musculus, UniProt Q9QUL3).
T2 sequence (Q9QUL3 whole entry): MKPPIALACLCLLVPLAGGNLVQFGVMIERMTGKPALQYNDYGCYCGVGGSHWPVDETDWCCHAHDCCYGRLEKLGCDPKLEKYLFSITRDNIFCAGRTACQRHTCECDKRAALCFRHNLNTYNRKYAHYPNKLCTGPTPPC
Briefly: Inhibition of mouse recombinant sPLA2 G2E.

Assay [5] concerns the target T3, Phospholipase A2, membrane associated (Homo sapiens, UniProt P14555).
T3 sequence (P14555 whole entry): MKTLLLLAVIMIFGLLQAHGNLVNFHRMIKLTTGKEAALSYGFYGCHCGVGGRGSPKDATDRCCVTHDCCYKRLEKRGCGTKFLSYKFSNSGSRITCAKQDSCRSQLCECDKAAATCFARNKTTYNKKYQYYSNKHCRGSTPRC
Briefly: Inhibition of human recombinant sPLA2 G2A.

For assay [6], the target named is T4, Phospholipase A2 group V (Homo sapiens, UniProt P39877).
T4 sequence (P39877 whole entry): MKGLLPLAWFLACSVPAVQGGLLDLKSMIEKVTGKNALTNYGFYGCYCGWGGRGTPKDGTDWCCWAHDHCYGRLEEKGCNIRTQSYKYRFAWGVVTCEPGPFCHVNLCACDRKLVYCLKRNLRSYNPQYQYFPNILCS
Briefly: Inhibition of human recombinant sPLA2 G5.

Assay [7] has as its target T5, Group 10 secretory phospholipase A2 (Homo sapiens, UniProt O15496).
T5 sequence (O15496 whole entry): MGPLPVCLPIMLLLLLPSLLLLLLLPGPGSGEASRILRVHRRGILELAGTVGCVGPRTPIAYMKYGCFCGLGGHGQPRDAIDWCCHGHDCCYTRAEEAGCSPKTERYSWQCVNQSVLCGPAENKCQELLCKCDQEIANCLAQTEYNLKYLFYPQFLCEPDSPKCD
Briefly: Inhibition of human recombinant sPLA2 G10.

The target in assay [8] is T6, Group 10 secretory phospholipase A2 (Mus musculus, UniProt Q9QXX3).
T6 sequence (Q9QXX3 whole entry): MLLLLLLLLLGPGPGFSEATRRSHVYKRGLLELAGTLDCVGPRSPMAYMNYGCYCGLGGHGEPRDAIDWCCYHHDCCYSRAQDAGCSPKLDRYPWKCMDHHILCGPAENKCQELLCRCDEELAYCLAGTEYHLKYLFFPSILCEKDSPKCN
Briefly: Inhibition of mouse recombinant sPLA2 G10.

In assay [9] the target is T7, Phospholipase A2 group V (Mus musculus, UniProt P97391).
T7 sequence (P97391 whole entry): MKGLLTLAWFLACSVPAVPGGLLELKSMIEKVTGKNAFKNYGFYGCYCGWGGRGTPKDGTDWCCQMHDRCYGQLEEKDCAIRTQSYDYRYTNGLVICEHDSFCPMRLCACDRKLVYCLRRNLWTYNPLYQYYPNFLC
Briefly: Inhibition of mouse recombinant sPLA2 G5.

Assay [10] deals with T8, Phospholipase A2, membrane associated (Mus musculus, UniProt P31482).
T8 sequence (P31482 whole entry): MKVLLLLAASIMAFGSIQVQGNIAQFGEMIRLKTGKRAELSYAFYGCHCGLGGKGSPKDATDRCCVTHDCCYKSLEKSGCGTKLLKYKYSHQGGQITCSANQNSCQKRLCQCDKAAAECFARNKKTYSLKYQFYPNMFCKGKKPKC
Kind of assay: Inhibition of mouse recombinant sPLA2 G2A.

The structures appear in SMILES notation.

Phospholipase A2 (Mus musculus, UniProt Q9Z0Y2), sequence (Q9Z0Y2 whole entry): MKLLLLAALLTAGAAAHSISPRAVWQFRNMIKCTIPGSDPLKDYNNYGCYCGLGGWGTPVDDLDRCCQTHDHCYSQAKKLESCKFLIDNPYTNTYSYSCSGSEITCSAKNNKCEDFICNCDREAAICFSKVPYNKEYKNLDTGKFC
Phospholipase A2 (Homo sapiens, UniProt P04054), sequence (P04054 whole entry): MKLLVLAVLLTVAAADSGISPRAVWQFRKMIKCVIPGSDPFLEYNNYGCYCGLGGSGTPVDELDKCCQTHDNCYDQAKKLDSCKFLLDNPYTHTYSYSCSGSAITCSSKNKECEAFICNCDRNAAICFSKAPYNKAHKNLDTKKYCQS

The IC50 is the concentration needed to halve the response being measured. In the case of `CCc1c(C(=O)C(N)=O)c2c(OCC(=O)O)cc(C)cc2n1Cc1ccccc1`, the IC50 at Phospholipase A2 [1] amounted to 200 nM; in assay [2], 50 nM; on Phospholipase A2 [3], 800 nM; in assay [4], 75 nM; in [5], 125 nM.
Turning to `Cc1cc(OCC(=O)O)c2c(C(=O)C(N)=O)c(C)n(Cc3ccccc3)c2c1`, the IC50 at Phospholipase A2 group V [6] stood at 800 nM; on Phospholipase A2 [1], 2000 nM; in assay [7], 2200 nM; in assay [8], 2500 nM; in assay [2], 125 nM; on Phospholipase A2 group V [9], 850 nM. Also, the IC50 at Phospholipase A2 [3] worked out at 2000 nM; in assay [4], 400 nM; in [10], 125 nM; in assay [5] it was 300 nM.
As for `Cc1c(C(=O)C(N)=O)c2c(OCC(=O)O)cccc2n1Cc1ccccc1`, the half-inhibitory concentration (IC50) at Phospholipase A2 group V [6] was 800 nM; on Phospholipase A2 [1], 2200 nM; in [7], 2000 nM; in [8], 2500 nM; in [2] it was 75 nM; at Phospholipase A2 group V [9], 1000 nM. The IC50 at Phospholipase A2 [3] came out at 2500 nM; in assay [4] it was 400 nM; in [10] it was 125 nM; in assay [5], 275 nM.
In the case of `CCc1c(C(=O)C(N)=O)c2c(OCC(=O)O)cccc2n1Cc1ccccc1` [VARESPLADIB], the IC50 was determined as 500 nM at Phospholipase A2 group V [6]; 140 nM at Phospholipase A2 [1]; 75 nM in assay [8]; 50 nM in [2]; 750 nM at Phospholipase A2 group V [9]; 750 nM at Phospholipase A2 [3]. The IC50 worked out at 75 nM in assay [4] and 70 nM in [10].
